Source: patent publication US5700640A, “Inducers of gamma globin gene expression and screening assays therefor” (priority 1994, dated 1997)

Assays:
[1] = tested on: gamma globin gene expression (gamma3'PE reporter) in K562 cells; experiment: gamma globin promoter-luciferase reporter assay in stably transfected gamma3'PE K562 cells; conditions: for reporter gene activity relative to VA or IVA (FIG. 5): 24 hours, fold-induction relative to isovaleric acid; for fold induction at 5000 µM: Homo sapiens, K562, 72 h, read-out: fold induction of reporter gene activity (FIG. 6); for induction of gamma-globin reporter gene expression over time course (FIG. 3): 24-122 hr, normalized to viable cells
Method: The gamma globin 5' promoter and 3' enhancer fragments, alone or in combination with each other or another fragment, were inserted into restriction endonuclease sites flanking the coding sequences of the luciferase gene in pGL2 using standard recombinant DNA techniques (pGL2 was obtained commercially from Promega Biotech). Constructs were prepared which contained: 1) the gamma globin promoter alone upstream of the luciferase gene (gamma); 2) the gamma globin promoter upstream of the luciferase gene and the gamma globin 3' enhancer downstream of the luciferase gene (gamma3'PE); 3) the gamma globin promoter upstream of the luciferase gene and the SV40 enhancer downstream of the luciferase gene (gammaSV40); 4) the beta globin promoter upstream of the luciferase gene and the gamma globin 3' enhancer downstream of the luciferase gene Coeta3'PE); and 5) hypersensitive sites 2 and 3 G-IS2 and HS3) of the 5' globin enhancer upstream of the gamma globin promoter upstream of the luciferase gene and the gamma globin 3' enhancer downstream of the luciferase gene (HS2/3gamma3'PE). These constructs are illustrated schematically in FIG. 2.
The gamma globin-luciferase reporter gene constructs described in Example 1 were introduced into a human erythroleukemia cell line K562 (ATCC No. CCL 243). To create stable transfectants, K562 cells (5×10^6) in log phase were suspended in 400 μl HEPES buffered saline and then combined with 33.5 μg salmon testes DNA (Sigma), 1.5 μg neo plasmid (pPMT) and 15 μg reporter gene plasmid supercoiled that had been co-precipitated and suspended in 400 μl HEPES buffered saline. The DNA-cell mixture was electroporated at settings of 0.25 KV and 960 μFD using a Gene Pulser (BioRad Inc.) electropotation apparatus.
The cells were allowed to recover 10 minutes at room temperature, then added to 10 ml complete RPMI cell culture medium. Cell debris was removed by centrifugation at 1000 rpm for 5 minutes. The live cells were suspended in 20 ml RPMI in 2×10 cm dishes and grown in non-selective media for 48 hours. Stably transfected cells were then selected by growing the cells in media containing 300 μg/ml G418 for about one month. During this time the cells were split 1:5 every 3 to 4 days. Once the lines were stable, they were carried in 100 μg/ml G418. The cell lines were designated according to the reporter gene construct that was introduced into the cell line. For example, a cell line carrying the gamma'3PE construct was designated gamma3'PE. Transient transfections were carried out similarly except that the neo plasmid was omitted from the electroporation solution and the cells were not subjected to G418 selection.
K562 host cells carrying gamma globin-reporter gene constructs were used to lo screen compounds for their ability to induce globin gene expression, as measured by increased reporter gene activity in the host cells upon treatment with the compound. The host cells described in Example 2 were grown to log phase cells and plated at a density of 2×10^5 /ml in RPMI media without G418. After 24 hours, compounds to be assayed for their ability to induce globin gene expression were dissolved in RPMI media at a concentration of 5 mM and added to the K562 stable transfectants. Mock-treated stably transfected K562 cells served as a negative control. The cells were incubated with the test compounds at 37° C. for various time periods (e.g., 24, 50, 74 and 122 hours).
After induction with the test compounds, the cells were harvested, lysed and assayed for reporter gene activity (i.e., luciferase activity) as follows. Cells were collected, washed once with PBS and lysed in 200 μl Cell Culture Lysis 1 X Reagent (Promega Luciferase Assay System) consisting of 25 mM Tris-Phosphate pH 7.8; 2 mM DTT; 2 mM 1,2-diaminocyclohexane-N,N,N,N-tetraacetic acid; 10% glycerol; 1% Triton X-100.

in vitro = conditions: human, k562 cells
Method: (§1) To normalize luciferase units to the number of viable cells, parallel cell viability assays were performed using 3-(4,5-dimethylthiazol-2-yl)-2,5-diphenyltetrazolium bromide (MTT) (Vistica, D. T. et al. (1991) Cancer Res. 51:2515-2520). Transfected K562 cells were plated in 96 well dishes at a density of 2×10^4 and 2×10^3 cells per 100 μl per well. 24 hours later, the cells were treated with test compounds (at a final concentration of 5 mM). At 24, 50, 74 or 122 hours after treatment, 50 μl of 3 mg/ml MTT in PBS was added to each well. The 96 well plate was then incubated at 37° C. for 4 to 5 hours. The formazan derivatives formed from tetrazolium by viable cells were solubilized by the addition of 50 μl/well 25% SDS, pH 3, overnight at 37° C. The plates were than read at a wavelength of 550 nm.

K562 cells = experiment: in vitro
Method: as §1

[2] = tested on: BA-mediated induction of luciferase activity in gamma3'PE K562 cells; experiment: effect of transport inhibitors on BA-induced reporter gene activity in gamma3'PE K562 cells; format: cell-based, human; conditions: acetazolamide 1 mM, SITS 10 μM, amiloride 10 μM; 24 hours with BA
Method: To characterize uptake of butyric acid by erythroid cells, K562 cells stably transfected with gamma3'PE were treated with BA in the presence of various transport inhibitors. […] Cells were maintained in the continuous presence of both BA and the inhibitor for 24 hours and then luciferase activity in the cells was measured.

[3] = tested on: gamma globin reporter gene activity in gamma3'PE K562 cells (protein kinase C activation); experiment: effect of indolactam V stereoisomers on basal and BA-induced reporter gene activity; format: cell-based, human; conditions: for effect on BA-induced globin gene expression (fold increment vs untreated cells) / effect on basal level globin gene expression: 11 μM or 0.4 μM; for effect on BA-induced globin gene expression (fold increment vs untreated cells): 1 hour before 5 mM BA for 24 hours; for effect on basal level globin gene expression: no BA
Method: The role of activated protein kinase C (pKC) in the activation of gamma globin gene expression by BA was investigated. […] The chemical structures of these compounds are shown in FIG. 13, panel A and B, respectively. Gamma3'PE cells were pre-incubated with either inducer (at 11 μM or 0.4 μM) or left untreated for 1 hour prior to treatment with 5 mMBA for 24 hours, followed by harvesting of the cells and assaying of luciferase activity. The results are shown in FIG. 14, Panel A (11 μM inducer) and FIG. 14, Panel B (0.4 μM inducer). […] Thus, it appears that these compounds act synergistically through pathways converging at some point downstream of the initial site of action of either inducer.

GATA-1 mRNA = experiment: Northern hybridization of GATA-1 mRNA in treated K562 cells; format: cell-based, human; conditions: for induction of mRNA encoding GATA-1: normalized data; for Normalized Value, GATA-1 RNA: normalized to 28S ribosomal RNA
Method: (§2) Total RNA was prepared by the method of McDonald as described in Sambrook et al., (1989) Molecular Cloning: A Laboratory Manual, 2nd Edition, Cold Spring Harbor Laboratory Press. 10 μg total cellular RNA was electrophoresed through agarose gels containing 3.3% formaldehyde. The electrophoresed RNA was then transferred to nitrocellulose filters by standard methods. Each sample was hybridized to specific probes for gamma globin mRNA, mRNA encoding the erythroid specific transcription factor GATA-1 and 28S ribosomal RNA (which was used for standardization). The gamma globin and GATA-1 probes were cDNA probes, which were labeled with ^32 p by random priming reactions (Promega Biotech Inc.). The 28S ribosomal RNA probe was an oligonucleotide having the sequence 5' […] 3' (SEQ ID NO: 3), which was labeled by 5' end labeling using T4 polynucleotide kinase (New England Biolabs). Nucleotide probes were hybridized to the RNA nitrocellulose filters according to standard techniques. After hybridization, radioactive signals on the nitrocellulose filters were directly quantified using a BioRad GS-250 Molecular Imager. mRNA hybridization intensities were normalized to the amount of 28S ribosomal RNA present for each sample.

gamma globin mRNA = experiment: Northern hybridization of gamma globin mRNA in treated K562 cells; format: cell-based, human; conditions: for Raw Value, gamma globin RNA / Normalized Value, gamma globin RNA: K562 cells, 5 mM, 96 hours; for Normalized Value, gamma globin RNA: normalized to 28S ribosomal RNA; for gamma globin mRNA steady state level: vs untreated cells or cells treated with BA
Method: as §2

[4] = compared with induction mediated by BA

O=C(O)CCCCc1ccccc1 [5-phenyl valeric acid]
reporter gene activity relative to VA or IVA (FIG. 5) ([1]; 5 mM): detectable reporter gene activity, although to a lesser extent than VA or IVA

C#CCCC(=O)O [4PyA, 4-pentynoic acid]
viability at 72 h, 5000 µM (in vitro): > 50% | cell death accompanying gamma globin gene induction (K562 cells): significantly less cell death than induction mediated by BA | fold induction at 5000 µM [1]: ~4

N=C(N)NC(=O)c1nc(Cl)c(N)nc1N [amiloride]
effect on BA-mediated induction of luciferase activity [2]: did not affect BA-mediated induction of luciferase activity

CCC(=O)O [propionic acid]
reporter gene activity relative to VA or IVA (FIG. 5) ([1]; 5 mM): detectable reporter gene activity, although to a lesser extent than VA or IVA

CC(=O)Nc1ccc(C=Cc2ccc(N=C=S)cc2S(=O)(=O)O)c(S(=O)(=O)O)c1 [SITS]
effect on BA-mediated induction of luciferase activity [2]: did not affect BA-mediated induction of luciferase activity

COCC(=O)O [MoAA, methoxyacetic acid]
viability at 72 h, 5000 µM (in vitro): > 50% | cell death accompanying gamma globin gene induction (K562 cells; [4]): significantly less cell death than induction mediated by BA | fold induction at 5000 µM [1]: ~4

CC(=O)Nc1nnc(S(N)(=O)=O)s1 [acetazolamide]
effect on BA-mediated induction of luciferase activity [2]: did not affect BA-mediated induction of luciferase activity

CC(C)[C@H]1C(=O)N[C@H](CO)Cc2c[nH]c3cccc(c23)N1C [(-) indolactam V]
effect on BA-induced globin gene expression (fold increment vs untreated cells) [3]: same fold increment | effect on basal level globin gene expression [3]: significant stimulatory effect on basal level globin gene expression | net increase in gene expression of combined treatment with BA ([3]; combined (-) indolactam V and 5 mM BA): well above the arithmetic sum of the level of induction achieved by either of these compounds separately

O=C(O)CCCc1ccccc1 [4-phenyl butyric acid]
reporter gene activity relative to VA or IVA (FIG. 5) ([1]; 5 mM): detectable reporter gene activity to a slightly greater extent than VA or IVA

CC(C)CC(=O)O [IVA, isovaleric acid]
induction of mRNA encoding GATA-1 (GATA-1 mRNA): significant induction of mRNA encoding GATA-1 | Normalized Value, GATA-1 RNA (GATA-1 mRNA; K562 cells, 5 mM, 96 hours): 1.3 × 10^6 | cell death accompanying gamma globin gene induction (K562 cells; [4]): significantly less cell death than induction mediated by BA | induction of gamma-globin reporter gene expression over time course (FIG. 3) ([1]; 5 mM): lower but sustained induction of reporter gene expression | Raw Value, gamma globin RNA (gamma globin mRNA): 5.94 × 10^6 | Normalized Value, gamma globin RNA (gamma globin mRNA): 5.3 × 10^6 | gamma globin mRNA steady state level (gamma globin mRNA): higher steady state level of gamma globin mRNA than untreated cells or cells treated with BA

CCCCC(=O)OC(=O)CCCC [valeric acid anhydride]
reporter gene activity relative to VA or IVA (FIG. 5) ([1]; 5 mM): detectable reporter gene activity, although to a lesser extent than VA or IVA

CC(C)[C@@H]1C(=O)N[C@@H](CO)Cc2c[nH]c3cccc(c23)N1C [(+) indolactam V]
effect on BA-induced globin gene expression (fold increment vs untreated cells) [3]: same fold increment | effect on basal level globin gene expression [3]: unaffected

CCCCC(=O)O [VA, valeric acid]
fold induction at 5000 µM (GATA-1 mRNA; Homo sapiens, K562, 96 h, read-out: Fold Induction, GATA-1 RNA): 6 | Raw Value, GATA-1 RNA (GATA-1 mRNA; K562 cells, 5 mM, 96 hours): 3.96 × 10^5 | induction of mRNA encoding GATA-1 (GATA-1 mRNA): significant induction of mRNA encoding GATA-1 | Normalized Value, GATA-1 RNA (GATA-1 mRNA; K562 cells, 5 mM, 96 hours): 3.5 × 10^5 | cell death accompanying gamma globin gene induction (K562 cells): significantly less cell death than induction mediated by BA | cell viability relative to untreated cells (FIG. 7) (K562 cells): equivalent to that of untreated cells | induction of gamma-globin reporter gene expression over time course (FIG. 3) ([1]; 5 mM): lower but sustained induction of reporter gene expression | induction relative to BA at 74 hr (FIG. 4) ([1]; 5 mM, normalized to fold induction by BA, 74 hr): marginally better inducers than BA at 74 hr | induction relative to BA at 122 hr (FIG. 4) ([1]; 5 mM, normalized to fold induction by BA, 122 hr): significantly better inducers than BA at 122 hr post induction | fold induction at 5000 µM (gamma globin mRNA; Homo sapiens, K562, 96 h, read-out: Fold Induction, gamma globin RNA): 4.4 | Raw Value, gamma globin RNA (gamma globin mRNA): 3.35 × 10^6 | Normalized Value, gamma globin RNA (gamma globin mRNA): 3.3 × 10^6 | gamma globin mRNA steady state level (gamma globin mRNA): higher steady state level of gamma globin mRNA than untreated cells or cells treated with BA

CSCC(=O)O [MtAA, methylthioacetic acid]
viability at 72 h, 5000 µM (in vitro): > 50% | cell death accompanying gamma globin gene induction (K562 cells): significantly less cell death than induction mediated by BA | fold induction at 5000 µM [1]: ~5

O=C(O)CCc1ccccc1 [3-phenyl propionic acid]
reporter gene activity relative to VA or IVA (FIG. 5) ([1]; 5 mM): detectable reporter gene activity, although to a lesser extent than VA or IVA
